Source: patent US8541418B2, “Inhibitors of polo-like kinase” (Elan Pharmaceutical, Inc., priority 2009, dated 2013)
Where two headings read alike, the source gives them in different places.

Experiments:
PLK2 [1] = target: T1, PLK2 (Homo sapiens, UniProt Q9NYY3); experiment: Kinase panel screening at InVitrogen, PLK2; conditions: 10 μM compound
PLK1 [2] = target: T2, PLK1 (Homo sapiens, UniProt P53350); experiment: Kinase panel screening at InVitrogen, PLK1; conditions: 10 μM compound
PLK2 [3] = target: T1, PLK2; experiment: PLK TR-FRET peptide assay, PLK2; format: biochemical; conditions: for IC50: PLK TR-FRET peptide assay, read-out: Plk2 IC50; for relative PLK2 activity of the enantiomers: compared with the opposite enantiomer
PLK3 = PLK3 (Homo sapiens, UniProt Q9H4B4); experiment: PLK TR-FRET peptide assay, PLK3; format: biochemical
Chain of PLK3 (Q9H4B4 whole entry): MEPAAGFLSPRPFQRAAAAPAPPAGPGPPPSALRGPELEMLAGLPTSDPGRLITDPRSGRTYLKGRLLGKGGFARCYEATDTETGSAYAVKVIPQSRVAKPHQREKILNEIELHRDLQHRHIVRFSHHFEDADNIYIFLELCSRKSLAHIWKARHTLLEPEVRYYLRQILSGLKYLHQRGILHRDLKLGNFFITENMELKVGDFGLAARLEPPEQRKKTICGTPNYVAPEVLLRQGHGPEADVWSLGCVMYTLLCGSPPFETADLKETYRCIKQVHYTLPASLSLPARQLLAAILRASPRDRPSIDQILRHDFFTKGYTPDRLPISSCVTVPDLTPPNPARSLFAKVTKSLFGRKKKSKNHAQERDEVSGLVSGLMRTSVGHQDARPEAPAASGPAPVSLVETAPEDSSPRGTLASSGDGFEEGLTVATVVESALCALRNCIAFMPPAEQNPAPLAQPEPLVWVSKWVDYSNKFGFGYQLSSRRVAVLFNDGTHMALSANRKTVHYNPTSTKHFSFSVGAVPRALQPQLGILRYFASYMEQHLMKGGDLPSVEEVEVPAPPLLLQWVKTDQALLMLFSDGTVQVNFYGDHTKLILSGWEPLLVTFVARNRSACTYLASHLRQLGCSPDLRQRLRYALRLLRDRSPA

PLK1 [4] = target: T2, PLK1; experiment: PLK TR-FRET peptide assay, PLK1; format: biochemical
[5] = GST-PLK3, 15 min reaction, read-out: Plk3 IC50

T2 sequence (P53350 whole entry): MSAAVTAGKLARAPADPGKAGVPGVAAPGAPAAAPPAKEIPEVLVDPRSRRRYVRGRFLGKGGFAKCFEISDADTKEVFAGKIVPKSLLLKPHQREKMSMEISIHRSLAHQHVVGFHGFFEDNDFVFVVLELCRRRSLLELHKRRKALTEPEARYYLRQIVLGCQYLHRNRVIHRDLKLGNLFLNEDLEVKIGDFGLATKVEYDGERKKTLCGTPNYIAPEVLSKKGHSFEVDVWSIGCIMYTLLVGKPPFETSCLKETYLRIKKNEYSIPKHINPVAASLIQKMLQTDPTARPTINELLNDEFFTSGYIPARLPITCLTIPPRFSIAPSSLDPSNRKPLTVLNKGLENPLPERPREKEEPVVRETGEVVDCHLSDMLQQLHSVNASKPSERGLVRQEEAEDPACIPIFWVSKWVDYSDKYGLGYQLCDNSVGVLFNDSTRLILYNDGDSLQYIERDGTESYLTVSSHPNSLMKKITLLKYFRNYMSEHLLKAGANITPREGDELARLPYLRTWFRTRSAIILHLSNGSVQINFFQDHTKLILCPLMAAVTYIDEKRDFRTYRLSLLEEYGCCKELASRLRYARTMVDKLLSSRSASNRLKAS
T1 sequence (Q9NYY3 whole entry): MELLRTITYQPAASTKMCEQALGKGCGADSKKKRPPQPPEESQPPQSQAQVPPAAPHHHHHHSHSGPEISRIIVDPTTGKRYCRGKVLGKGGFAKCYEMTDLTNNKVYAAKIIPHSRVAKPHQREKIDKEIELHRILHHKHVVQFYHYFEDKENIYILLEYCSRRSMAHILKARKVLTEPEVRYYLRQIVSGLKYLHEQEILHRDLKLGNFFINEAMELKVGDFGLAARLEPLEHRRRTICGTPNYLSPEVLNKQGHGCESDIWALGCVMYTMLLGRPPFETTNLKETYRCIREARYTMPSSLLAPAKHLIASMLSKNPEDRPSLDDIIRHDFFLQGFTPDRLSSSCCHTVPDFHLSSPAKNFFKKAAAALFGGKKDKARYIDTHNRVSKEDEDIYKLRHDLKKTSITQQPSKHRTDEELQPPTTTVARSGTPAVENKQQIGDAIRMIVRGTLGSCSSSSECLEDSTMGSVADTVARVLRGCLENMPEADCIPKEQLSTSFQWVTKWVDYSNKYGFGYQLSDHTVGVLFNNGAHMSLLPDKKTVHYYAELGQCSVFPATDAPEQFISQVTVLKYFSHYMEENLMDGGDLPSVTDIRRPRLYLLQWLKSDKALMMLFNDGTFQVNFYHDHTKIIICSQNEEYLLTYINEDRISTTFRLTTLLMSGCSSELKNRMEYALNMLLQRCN

CC[C@@H]1C(=O)N(C)c2cnc(-n3ccnc3-c3ccccc3)nc2N1C1CCCC1 [Example 26, (R)-8-cyclopentyl-7-ethyl-5-methyl-2-(2-phenyl-1H-imidazol-1-yl)-7,8-dihydropteridin-6(5H)-one]
activity against PLK2 in kinase panel (PLK2 [1]): potent

CC[C@@H]1C(=O)N(C)c2cnc(-n3ccnc3-c3cscn3)nc2N1C1CCCC1 [Example 68, (R)-8-cyclopentyl-7-ethyl-5-methyl-2-(2-(thiazol-4-yl)-1H-imidazol-1-yl)-7,8-dihydropteridin-6(5H)-one]
activity against PLK1 in kinase panel (PLK1 [2]): potent
IC50 (PLK2 [3]; GST-PLK2, 60 min reaction): < 1 µM
IC50 (PLK3; [5]): < 1 µM
IC50 (PLK1 [4]; GST-PLK1, 60 min reaction): < 1 µM
activity against PLK2 in kinase panel (PLK2 [1]): potent

CC[C@@]12CCCN1c1nc(-n3ccnc3-c3ccccc3)ncc1N(C)C2=O [Example 76, (S)-6a-ethyl-5-methyl-2-(2-phenyl-1H-imidazol-1-yl)-6a,7,8,9-tetrahydropyrrolo[2,1-h]pteridin-6(5H)-one]
activity against PLK1 in kinase panel (PLK1 [2]): potent
activity against PLK2 in kinase panel (PLK2 [1]): potent

CCC1C(=O)N(C)c2cnc(-n3ccnc3-c3ccc(F)cc3)nc2N1c1cccc(-c2cncnc2)c1 (stereo not drawn) [Example 346, 7-ethyl-2-(2-(4-fluorophenyl)-1H-imidazol-1-yl)-5-methyl-8-(3-(pyrimidin-5-yl)phenyl)-7,8-dihydropteridin-6(5H)-one]
IC50 (PLK2 [3]; GST-PLK2, 60 min reaction): < 1 µM
IC50 (PLK3; [5]): 1 to 10 µM
IC50 (PLK1 [4]; GST-PLK1, 60 min reaction): 1 to 10 µM

CC[C@@H]1C(=O)N(C)c2cnc(-c3sc(Br)nc3-c3ccc(F)cc3)nc2N1C(C)C [Example 347, (R)-2-(2-bromo-4-(4-fluorophenyl)thiazol-5-yl)-7-ethyl-8-isopropyl-5-methyl-7,8-dihydropteridin-6(5H)-one]
IC50 (PLK2 [3]; GST-PLK2, 60 min reaction): < 1 µM
IC50 (PLK3; [5]): > 50 µM
IC50 (PLK1 [4]; GST-PLK1, 60 min reaction): > 50 µM

CC[C@@H]1C(=O)N(C)c2cnc(-c3scnc3-c3ccn[nH]3)nc2N1C(C)C [Example 348, (R)-2-(4-(1H-pyrazol-5-yl)thiazol-5-yl)-7-ethyl-8-isopropyl-5-methyl-7,8-dihydropteridin-6(5H)-one]
IC50 (PLK2 [3]; GST-PLK2, 60 min reaction): < 1 µM
IC50 (PLK3; [5]): 1 to 10 µM
IC50 (PLK1 [4]; GST-PLK1, 60 min reaction): 1 to 10 µM

CC[C@@H]1C(=O)N(C)c2cnc(-n3ccnc3-c3ccccc3)nc2N1C(C)C1CC1 (stereo partly drawn) [Example 350, (7R)-8-(1-cyclopropylethyl)-7-ethyl-5-methyl-2-(2-phenyl-1H-imidazol-1-yl)-7,8-dihydropteridin-6(5H)-one]
IC50 (PLK2 [3]; GST-PLK2, 60 min reaction): < 1 µM
IC50 (PLK3; [5]): < 1 µM
IC50 (PLK1 [4]; GST-PLK1, 60 min reaction): < 1 µM

CC[C@@H]1C(=O)N(C)c2cnc(-n3ccnc3-c3ccc(F)cc3)nc2N1C(C)C1CC1 (stereo partly drawn) [Example 351, (7R)-8-(1-cyclopropylethyl)-7-ethyl-2-(2-(4-fluorophenyl)-1H-imidazol-1-yl)-5-methyl-7,8-dihydropteridin-6(5H)-one]
IC50 (PLK2 [3]; GST-PLK2, 60 min reaction): < 1 µM
IC50 (PLK3; [5]): 1 to 10 µM
IC50 (PLK1 [4]; GST-PLK1, 60 min reaction): 1 to 10 µM

CC[C@@H]1C(=O)N(C)c2cnc(-n3ccnc3C(F)(F)F)nc2N1C1CCCC1 [Example 352, (R)-8-cyclopentyl-7-ethyl-5-methyl-2-(2-(trifluoromethyl)-1H-imidazol-1-yl)-7,8-dihydropteridin-6(5H)-one]
IC50 (PLK2 [3]; GST-PLK2, 60 min reaction): < 1 µM
IC50 (PLK3; [5]): 1 to 10 µM
IC50 (PLK1 [4]; GST-PLK1, 60 min reaction): 1 to 10 µM

CC[C@@H]1C(=O)N(C)c2cnc(-c3cn[nH]c3-c3nccs3)nc2N1C1CC(F)(F)C1 [Example 353, (R)-8-(3,3-difluorocyclobutyl)-7-ethyl-5-methyl-2-(5-(thiazol-2-yl)-1H-pyrazol-4-yl)-7,8-dihydropteridin-6(5H)-one]
IC50 (PLK2 [3]; GST-PLK2, 60 min reaction): < 1 µM
IC50 (PLK3; [5]): 1 to 10 µM
IC50 (PLK1 [4]; GST-PLK1, 60 min reaction): 1 to 10 µM

CC[C@@H]1C(=O)N(C)c2cnc(-c3sc(C#N)nc3-c3ccc(F)cc3)nc2N1C(C)C [Example 354, (R)-5-(7-ethyl-8-isopropyl-5-methyl-6-oxo-5,6,7,8-tetrahydropteridin-2-yl)-4-(4-fluorophenyl)thiazole-2-carbonitrile]
IC50 (PLK2 [3]; GST-PLK2, 60 min reaction): < 1 µM
IC50 (PLK3; [5]): < 1 µM
IC50 (PLK1 [4]; GST-PLK1, 60 min reaction): 1 to 10 µM

CC[C@@H]1C(=O)N(C)c2cnc(-c3cncs3)nc2N1C1CCCC1 [Example 355, (R)-8-cyclopentyl-7-ethyl-5-methyl-2-(thiazol-5-yl)-7,8-dihydropteridin-6(5H)-one]
IC50 (PLK2 [3]; GST-PLK2, 60 min reaction): < 1 µM
IC50 (PLK3; [5]): 1 to 10 µM
IC50 (PLK1 [4]; GST-PLK1, 60 min reaction): < 1 µM

CC[C@@H]1CC[C@@]2(CC)C(=O)N(C)c3cnc(-c4cn[nH]c4-c4cscn4)nc3N12 [Example 356, (6aS,9R)-6a,9-diethyl-5-methyl-2-(5-(thiazol-4-yl)-1H-pyrazol-4-yl)-6a,7,8,9-tetrahydropyrrolo[2,1-h]pteridin-6(5H)-one]
IC50 (PLK2 [3]; GST-PLK2, 60 min reaction): < 1 µM
IC50 (PLK3; [5]): 1 to 10 µM
IC50 (PLK1 [4]; GST-PLK1, 60 min reaction): 1 to 10 µM

CC[C@@H]1C(=O)N(C)c2cnc(-c3cn[nH]c3-c3nccs3)nc2N1C(C)C1CC1 (stereo partly drawn) [Example 357, (7R)-8-(1-cyclopropylethyl)-7-ethyl-5-methyl-2-(5-(thiazol-2-yl)-1H-pyrazol-4-yl)-7,8-dihydropteridin-6(5H)-one]
IC50 (PLK2 [3]; GST-PLK2, 60 min reaction): < 1 µM
IC50 (PLK3; [5]): 1 to 10 µM
IC50 (PLK1 [4]; GST-PLK1, 60 min reaction): < 1 µM

CC[C@@H]1C(=O)N(C)c2cnc(-n3ccnc3-c3ccc(F)cc3)nc2N1c1cccc(C#N)c1 [Example 358, (R)-3-(7-ethyl-2-(2-(4-fluorophenyl)-1H-imidazol-1-yl)-5-methyl-6-oxo-6,7-dihydropteridin-8(5H)-yl)benzonitrile]
IC50 (PLK2 [3]; GST-PLK2, 60 min reaction): < 1 µM
relative PLK2 activity of the enantiomers (PLK2 [3]): more active compound
IC50 (PLK3; [5]): 1 to 10 µM
IC50 (PLK1 [4]; GST-PLK1, 60 min reaction): 1 to 10 µM

CC[C@H]1C(=O)N(C)c2cnc(-n3ccnc3-c3ccc(F)cc3)nc2N1c1cccc(C#N)c1 [Example 359, (S)-3-(7-ethyl-2-(2-(4-fluorophenyl)-1H-imidazol-1-yl)-5-methyl-6-oxo-6,7-dihydropteridin-8(5H)-yl)benzonitrile]
IC50 (PLK2 [3]; GST-PLK2, 60 min reaction): 1 to 10 µM
IC50 (PLK3; [5]): 10 to 50 µM
IC50 (PLK1 [4]; GST-PLK1, 60 min reaction): > 50 µM

CCC1C(=O)N(C)c2cnc(-c3cn[nH]c3-c3nccs3)nc2N1c1ccc(F)cc1 (stereo not drawn) [Example 370]
IC50 (PLK2 [3]; GST-PLK2, 60 min reaction): < 1 µM
IC50 (PLK3; [5]): 1 to 10 µM
IC50 (PLK1 [4]; GST-PLK1, 60 min reaction): < 1 µM

CCC1C(=O)N(C)c2cnc(-c3cn[nH]c3-c3nccs3)nc2N1c1cccc(C#N)c1 (stereo not drawn) [Example 372, 3-(7-ethyl-5-methyl-6-oxo-2-(5-(thiazol-2-yl)-1H-pyrazol-4-yl)-6,7-dihydropteridin-8(5H)-yl)benzonitrile]
IC50 (PLK2 [3]; GST-PLK2, 60 min reaction): < 1 µM
IC50 (PLK3; [5]): 1 to 10 µM
IC50 (PLK1 [4]; GST-PLK1, 60 min reaction): 1 to 10 µM

CC[C@@H]1C(=O)N(C)c2cnc(-c3cn[nH]c3-c3nccs3)nc2N1c1ccc(Cl)cc1 [Example 382, (R)-8-(4-chlorophenyl)-7-ethyl-5-methyl-2-(5-(thiazol-2-yl)-1H-pyrazol-4-yl)-7,8-dihydropteridin-6(5H)-one]
IC50 (PLK2 [3]; GST-PLK2): < 1 µM
relative PLK2 activity of the enantiomers (PLK2 [3]): more active compound
IC50 (PLK3; GST-PLK3, read-out: Plk3 IC50): < 1 µM
IC50 (PLK1 [4]; GST-PLK1): < 1 µM

CC[C@H]1C(=O)N(C)c2cnc(-c3cn[nH]c3-c3nccs3)nc2N1c1ccc(Cl)cc1 [Example 383, (S)-8-(4-chlorophenyl)-7-ethyl-5-methyl-2-(5-(thiazol-2-yl)-1H-pyrazol-4-yl)-7,8-dihydropteridin-6(5H)-one]
IC50 (PLK2 [3]; GST-PLK2): 1 to 10 µM
IC50 (PLK3; GST-PLK3, read-out: Plk3 IC50): > 50 µM
IC50 (PLK1 [4]; GST-PLK1): 10 to 50 µM

CC[C@@H]1C(=O)N(C)c2cnc(-n3cnc(C(=O)N(C)C)c3)nc2N1C1CCCC1 [Example 384, (R)-1-(8-cyclopentyl-7-ethyl-5-methyl-6-oxo-5,6,7,8-tetrahydropteridin-2-yl)-N,N-dimethyl-1H-imidazole-4-carboxamide]
IC50 (PLK2 [3]; GST-PLK2): 1 to 10 µM
IC50 (PLK3; GST-PLK3, read-out: Plk3 IC50): 10 to 50 µM
IC50 (PLK1 [4]; GST-PLK1): 1 to 10 µM

CCC1C(=O)N(C)c2cnc(-n3ccnc3-c3ccc(F)cc3)nc2N1c1ccc(Cl)cc1 (stereo not drawn) [Example 388, 8-(4-chlorophenyl)-7-ethyl-2-(2-(4-fluorophenyl)-1H-imidazol-1-yl)-5-methyl-7,8-dihydropteridin-6(5H)-one]
IC50 (PLK2 [3]; GST-PLK2): < 1 µM
IC50 (PLK3; GST-PLK3, read-out: Plk3 IC50): 1 to 10 µM
IC50 (PLK1 [4]; GST-PLK1): 1 to 10 µM

CC[C@@H]1C(=O)N(C)c2cnc(-c3cnsc3-c3ccc(F)cc3)nc2N1c1cccc(C#N)c1 [Example 391, (R)-3-(7-ethyl-2-(5-(4-fluorophenyl)isothiazol-4-yl)-5-methyl-6-oxo-6,7-dihydropteridin-8(5H)-yl)benzonitrile]
IC50 (PLK2 [3]; GST-PLK2): < 1 µM
relative PLK2 activity of the enantiomers (PLK2 [3]): more active compound
IC50 (PLK3; GST-PLK3, read-out: Plk3 IC50): < 1 µM
IC50 (PLK1 [4]; GST-PLK1): < 1 µM

CC[C@H]1C(=O)N(C)c2cnc(-c3cnsc3-c3ccc(F)cc3)nc2N1c1cccc(C#N)c1 [Example 392, (S)-3-(7-ethyl-2-(5-(4-fluorophenyl)isothiazol-4-yl)-5-methyl-6-oxo-6,7-dihydropteridin-8(5H)-yl)benzonitrile]
IC50 (PLK2 [3]; GST-PLK2): > 50 µM
IC50 (PLK3; GST-PLK3, read-out: Plk3 IC50): > 50 µM
IC50 (PLK1 [4]; GST-PLK1): > 50 µM

CC[C@H]1C(=O)N(C)c2cnc(-c3cn[nH]c3-c3nccs3)nc2N1c1ccc(F)c(F)c1 [Example 393, (S)-8-(3,4-difluorophenyl)-7-ethyl-5-methyl-2-(5-(thiazol-2-yl)-1H-pyrazol-4-yl)-7,8-dihydropteridin-6(5H)-one]
IC50 (PLK2 [3]; GST-PLK2): 1 to 10 µM
IC50 (PLK3; GST-PLK3, read-out: Plk3 IC50): > 50 µM
IC50 (PLK1 [4]; GST-PLK1): 10 to 50 µM

CC[C@@H]1C(=O)N(C)c2cnc(-c3cn[nH]c3-c3nccs3)nc2N1c1ccc(F)c(F)c1 [Example 395, (R)-8-(3,4-difluorophenyl)-7-ethyl-5-methyl-2-(5-(thiazol-2-yl)-1H-pyrazol-4-yl)-7,8-dihydropteridin-6(5H)-one]
IC50 (PLK2 [3]; GST-PLK2): < 1 µM
relative PLK2 activity of the enantiomers (PLK2 [3]): more active compound
IC50 (PLK3; GST-PLK3, read-out: Plk3 IC50): 1 to 10 µM
IC50 (PLK1 [4]; GST-PLK1): < 1 µM
